# Laboratory results as given in ChEMBL document CHEMBL4507317, “Data for DCP probe BAY-899” (2021).
# How the values were obtained:
# [1] = molecular target: Serine/threonine-protein kinase PAK 4 (Homo sapiens) (UniProt O96013); conditions: Compound concentration 1000.0 nM
# [2] = molecular target: Tyrosine-protein kinase JAK1 (Homo sapiens) (UniProt P23458); conditions: Compound concentration 1000.0 nM
# [3] = molecular target: Cyclin-dependent kinase 4 (Homo sapiens) (UniProt P11802); conditions: Compound concentration 1000.0 nM
# [4] = molecular target: Histamine H1 receptor (Homo sapiens) (UniProt P35367); conditions: Compound concentration 10.0 uM
# [5] = molecular target: Cyclin-dependent kinase 2 homolog (Plasmodium falciparum (isolate 3D7)) (UniProt P61075); conditions: Compound concentration 1000.0 nM
# [6] = molecular target: High affinity nerve growth factor receptor (Homo sapiens) (UniProt P04629); conditions: Compound concentration 1000.0 nM
# [7] = molecular target: 5-hydroxytryptamine receptor 2B (Homo sapiens, UniProt P41595); conditions: Compound concentration 10.0 uM
# [8] = molecular target: 5-hydroxytryptamine receptor 2A (Homo sapiens, UniProt P28223); conditions: Compound concentration 10.0 uM
# Chain of 5-hydroxytryptamine receptor 2A (P28223 whole entry): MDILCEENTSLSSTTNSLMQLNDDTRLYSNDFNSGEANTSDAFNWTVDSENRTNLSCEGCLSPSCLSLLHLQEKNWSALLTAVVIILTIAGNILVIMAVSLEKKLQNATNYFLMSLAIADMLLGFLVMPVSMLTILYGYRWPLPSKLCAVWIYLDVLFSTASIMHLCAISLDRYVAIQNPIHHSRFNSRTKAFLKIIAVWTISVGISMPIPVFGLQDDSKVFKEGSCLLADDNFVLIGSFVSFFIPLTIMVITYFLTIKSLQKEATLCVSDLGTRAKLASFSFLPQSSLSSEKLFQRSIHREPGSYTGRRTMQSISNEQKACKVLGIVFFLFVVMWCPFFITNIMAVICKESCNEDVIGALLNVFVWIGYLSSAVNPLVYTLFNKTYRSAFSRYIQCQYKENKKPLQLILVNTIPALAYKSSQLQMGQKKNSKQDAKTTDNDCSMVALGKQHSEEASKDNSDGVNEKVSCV
# [9] = molecular target: Calcium/calmodulin-dependent protein kinase type 1 (Homo sapiens) (UniProt Q14012); conditions: Compound concentration 1000.0 nM
# [10] = molecular target: Serine/threonine-protein kinase Nek6 (Homo sapiens) (UniProt Q9HC98); conditions: Compound concentration 1000.0 nM
# [11] = molecular target: Tyrosine-protein kinase ABL2 (Homo sapiens) (UniProt P42684); conditions: Compound concentration 1000.0 nM
# [12] = system: Mast/stem cell growth factor receptor Kit (Homo sapiens), P10721 [V559D]; conditions: Compound concentration 1000.0 nM
# [13] = molecular target: Insulin receptor-related protein (Homo sapiens) (UniProt P14616); conditions: Compound concentration 1000.0 nM
# [14] = molecular target: Cyclin-dependent kinase 3 (Homo sapiens) (UniProt Q00526); conditions: Compound concentration 1000.0 nM
# [15] = molecular target: cAMP-dependent protein kinase catalytic subunit PRKX (Homo sapiens) (UniProt P51817); conditions: Compound concentration 1000.0 nM
# [16] = molecular target: Receptor-type tyrosine-protein kinase FLT3 (Homo sapiens) (UniProt P36888); conditions: Compound concentration 1000.0 nM
# [17] = molecular target: Cyclin-dependent kinase 16 (Homo sapiens) (UniProt Q00536); conditions: Compound concentration 1000.0 nM
# Chain of Cyclin-dependent kinase 16 (Homo sapiens) (Q00536 whole entry): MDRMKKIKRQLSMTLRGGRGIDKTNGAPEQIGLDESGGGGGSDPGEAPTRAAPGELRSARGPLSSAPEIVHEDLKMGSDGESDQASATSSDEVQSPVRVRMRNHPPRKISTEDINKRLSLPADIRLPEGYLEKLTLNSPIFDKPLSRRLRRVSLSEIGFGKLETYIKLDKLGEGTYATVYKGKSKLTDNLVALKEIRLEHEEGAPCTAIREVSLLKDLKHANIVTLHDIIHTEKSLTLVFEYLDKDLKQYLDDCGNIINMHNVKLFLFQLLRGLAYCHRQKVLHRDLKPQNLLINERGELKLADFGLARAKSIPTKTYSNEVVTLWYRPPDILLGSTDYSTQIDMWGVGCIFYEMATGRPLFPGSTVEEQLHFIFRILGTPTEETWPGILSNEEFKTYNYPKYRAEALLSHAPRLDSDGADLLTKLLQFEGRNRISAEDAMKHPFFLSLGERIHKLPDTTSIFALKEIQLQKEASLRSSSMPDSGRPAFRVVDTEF
# [18] = molecular target: Ephrin type-A receptor 6 (Homo sapiens) (UniProt Q9UF33); conditions: Compound concentration 1000.0 nM
# Chain of Ephrin type-A receptor 6 (Homo sapiens) (Q9UF33 whole entry, the tested form may be a part): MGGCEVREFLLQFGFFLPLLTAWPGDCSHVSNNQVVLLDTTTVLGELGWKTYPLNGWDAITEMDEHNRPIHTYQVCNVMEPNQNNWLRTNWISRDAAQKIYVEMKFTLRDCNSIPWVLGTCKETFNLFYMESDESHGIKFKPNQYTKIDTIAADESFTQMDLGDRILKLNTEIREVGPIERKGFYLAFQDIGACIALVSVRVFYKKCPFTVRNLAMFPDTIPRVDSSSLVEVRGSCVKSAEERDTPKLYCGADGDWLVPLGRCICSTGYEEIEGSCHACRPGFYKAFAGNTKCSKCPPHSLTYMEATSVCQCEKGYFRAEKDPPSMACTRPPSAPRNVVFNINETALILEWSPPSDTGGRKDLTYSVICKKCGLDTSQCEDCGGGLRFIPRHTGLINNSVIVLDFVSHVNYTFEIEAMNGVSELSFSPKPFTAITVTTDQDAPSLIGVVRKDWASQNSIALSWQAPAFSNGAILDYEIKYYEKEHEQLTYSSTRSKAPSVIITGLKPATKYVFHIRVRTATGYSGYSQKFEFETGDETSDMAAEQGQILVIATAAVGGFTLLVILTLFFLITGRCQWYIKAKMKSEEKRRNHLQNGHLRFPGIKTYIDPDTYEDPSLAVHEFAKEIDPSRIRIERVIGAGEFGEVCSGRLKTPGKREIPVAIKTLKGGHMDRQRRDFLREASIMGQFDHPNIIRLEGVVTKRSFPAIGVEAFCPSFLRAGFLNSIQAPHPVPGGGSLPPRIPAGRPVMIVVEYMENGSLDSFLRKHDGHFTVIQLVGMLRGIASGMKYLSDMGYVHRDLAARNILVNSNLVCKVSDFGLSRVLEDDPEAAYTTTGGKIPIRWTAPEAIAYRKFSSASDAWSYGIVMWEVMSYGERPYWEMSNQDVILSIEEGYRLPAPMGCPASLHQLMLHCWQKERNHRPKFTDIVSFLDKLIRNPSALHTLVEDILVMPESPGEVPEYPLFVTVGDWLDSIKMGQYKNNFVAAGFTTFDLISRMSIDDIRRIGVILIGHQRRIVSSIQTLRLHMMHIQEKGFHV
# [19] = molecular target: LIM domain kinase 1 (Homo sapiens) (UniProt P53667); conditions: Compound concentration 1000.0 nM
# [20] = molecular target: Serine/threonine-protein kinase ULK2 (Homo sapiens) (UniProt Q8IYT8); conditions: Compound concentration 1000.0 nM
# [21] = molecular target: RAC-gamma serine/threonine-protein kinase (Homo sapiens) (UniProt Q9Y243); conditions: Compound concentration 1000.0 nM
# [22] = molecular target: Dual specificity mitogen-activated protein kinase kinase 4 (Homo sapiens) (UniProt P45985); conditions: Compound concentration 1000.0 nM
# [23] = system: Phosphatidylinositol 4,5-bisphosphate 3-kinase catalytic subunit alpha isoform (Homo sapiens), P42336 [I800L]; conditions: Compound concentration 1000.0 nM
# [24] = system: Tyrosine-protein kinase ABL1 (Homo sapiens), P00519 [H396P]; conditions: Compound concentration 1000.0 nM
# [25] = molecular target: Myotonin-protein kinase (Homo sapiens) (UniProt Q09013); conditions: Compound concentration 1000.0 nM
# [26] = molecular target: Protein-tyrosine kinase 2-beta (Homo sapiens) (UniProt Q14289); conditions: Compound concentration 1000.0 nM
# [27] = molecular target: Receptor-interacting serine/threonine-protein kinase 4 (Homo sapiens) (UniProt P57078); conditions: Compound concentration 1000.0 nM
# [28] = molecular target: Dual specificity mitogen-activated protein kinase kinase 3 (Homo sapiens) (UniProt P46734); conditions: Compound concentration 1000.0 nM
# [29] = molecular target: Interleukin-1 receptor-associated kinase 4 (Homo sapiens) (UniProt Q9NWZ3); conditions: Compound concentration 1000.0 nM
# [30] = system: Hepatocyte growth factor receptor (Homo sapiens), P08581 [M1250T]; conditions: Compound concentration 1000.0 nM
# [31] = molecular target: Serine/threonine-protein kinase PAK 5 (Homo sapiens) (UniProt Q9P286); conditions: Compound concentration 1000.0 nM
# [32] = molecular target: TGF-beta receptor type-2 (Homo sapiens) (UniProt P37173); conditions: Compound concentration 1000.0 nM
# [33] = molecular target: Dual specificity protein kinase CLK3 (Homo sapiens) (UniProt P49761); conditions: Compound concentration 1000.0 nM
# [34] = molecular target: Tyrosine-protein kinase FRK (Homo sapiens) (UniProt P42685); conditions: Compound concentration 1000.0 nM
# [35] = molecular target: Serine/threonine-protein kinase Nek5 (Homo sapiens) (UniProt Q6P3R8); conditions: Compound concentration 1000.0 nM
# [36] = system: Phosphatidylinositol 4,5-bisphosphate 3-kinase catalytic subunit alpha isoform (Homo sapiens), P42336 [M1043I]; conditions: Compound concentration 1000.0 nM
# [37] = molecular target: Serine/threonine-protein kinase VRK2 (Homo sapiens) (UniProt Q86Y07); conditions: Compound concentration 1000.0 nM
# [38] = molecular target: Ribosomal protein S6 kinase alpha-6 (Homo sapiens) (UniProt Q9UK32); conditions: Compound concentration 1000.0 nM
# [39] = molecular target: Non-receptor tyrosine-protein kinase TYK2 (Homo sapiens) (UniProt P29597); conditions: Compound concentration 1000.0 nM
# Chain of Non-receptor tyrosine-protein kinase TYK2 (Homo sapiens) (P29597 whole entry): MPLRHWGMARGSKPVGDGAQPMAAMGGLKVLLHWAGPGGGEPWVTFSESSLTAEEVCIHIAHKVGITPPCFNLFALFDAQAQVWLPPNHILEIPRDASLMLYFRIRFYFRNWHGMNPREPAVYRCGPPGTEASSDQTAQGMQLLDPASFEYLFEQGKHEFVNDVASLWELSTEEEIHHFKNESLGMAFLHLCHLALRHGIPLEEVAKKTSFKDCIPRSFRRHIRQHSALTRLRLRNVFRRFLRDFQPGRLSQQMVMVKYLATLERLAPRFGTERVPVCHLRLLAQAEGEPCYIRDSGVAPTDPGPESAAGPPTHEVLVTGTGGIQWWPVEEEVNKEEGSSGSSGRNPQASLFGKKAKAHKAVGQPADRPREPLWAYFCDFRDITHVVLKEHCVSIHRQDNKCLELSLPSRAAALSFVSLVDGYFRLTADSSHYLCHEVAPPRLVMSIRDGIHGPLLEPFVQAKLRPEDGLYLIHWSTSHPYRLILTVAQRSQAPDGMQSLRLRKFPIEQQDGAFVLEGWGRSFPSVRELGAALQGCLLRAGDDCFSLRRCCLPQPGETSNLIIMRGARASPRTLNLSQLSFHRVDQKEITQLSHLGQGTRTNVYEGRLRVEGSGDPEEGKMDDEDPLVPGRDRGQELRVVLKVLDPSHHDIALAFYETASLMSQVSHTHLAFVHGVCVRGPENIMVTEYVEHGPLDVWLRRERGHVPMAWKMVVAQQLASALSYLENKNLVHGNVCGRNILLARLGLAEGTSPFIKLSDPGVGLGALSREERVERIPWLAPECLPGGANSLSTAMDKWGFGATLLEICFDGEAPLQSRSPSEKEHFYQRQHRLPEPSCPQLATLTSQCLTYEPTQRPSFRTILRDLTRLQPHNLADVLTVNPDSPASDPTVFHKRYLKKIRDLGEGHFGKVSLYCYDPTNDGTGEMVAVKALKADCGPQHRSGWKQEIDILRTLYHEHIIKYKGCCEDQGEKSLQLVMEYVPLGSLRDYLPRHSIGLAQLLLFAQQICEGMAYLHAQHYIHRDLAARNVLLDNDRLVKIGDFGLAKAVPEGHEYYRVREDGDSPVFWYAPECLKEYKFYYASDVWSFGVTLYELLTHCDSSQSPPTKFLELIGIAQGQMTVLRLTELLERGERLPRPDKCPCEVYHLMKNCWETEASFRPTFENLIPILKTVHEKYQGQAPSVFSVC
# [40] = system: Serine/threonine-protein kinase B-raf (Homo sapiens), P15056 [V600E]; conditions: Compound concentration 1000.0 nM
# [41] = molecular target: 5-hydroxytryptamine receptor 2C (Homo sapiens) (UniProt P28335); conditions: Compound concentration 10.0 uM
# [42] = molecular target: Mitogen-activated protein kinase kinase kinase 6 (Homo sapiens) (UniProt O95382); conditions: Compound concentration 1000.0 nM
# [43] = molecular target: Alpha-2C adrenergic receptor (Homo sapiens) (UniProt P18825); conditions: Compound concentration 10.0 uM
# [44] = system: Receptor-type tyrosine-protein kinase FLT3 (Homo sapiens), P36888 [UNDEFINED MUTATION]; conditions: Compound concentration 1000.0 nM
# [45] = molecular target: Citron Rho-interacting kinase (Homo sapiens) (UniProt O14578); conditions: Compound concentration 1000.0 nM
# Chain of Serine/threonine-protein kinase PAK 4 (Homo sapiens) (O96013 whole entry, looked up): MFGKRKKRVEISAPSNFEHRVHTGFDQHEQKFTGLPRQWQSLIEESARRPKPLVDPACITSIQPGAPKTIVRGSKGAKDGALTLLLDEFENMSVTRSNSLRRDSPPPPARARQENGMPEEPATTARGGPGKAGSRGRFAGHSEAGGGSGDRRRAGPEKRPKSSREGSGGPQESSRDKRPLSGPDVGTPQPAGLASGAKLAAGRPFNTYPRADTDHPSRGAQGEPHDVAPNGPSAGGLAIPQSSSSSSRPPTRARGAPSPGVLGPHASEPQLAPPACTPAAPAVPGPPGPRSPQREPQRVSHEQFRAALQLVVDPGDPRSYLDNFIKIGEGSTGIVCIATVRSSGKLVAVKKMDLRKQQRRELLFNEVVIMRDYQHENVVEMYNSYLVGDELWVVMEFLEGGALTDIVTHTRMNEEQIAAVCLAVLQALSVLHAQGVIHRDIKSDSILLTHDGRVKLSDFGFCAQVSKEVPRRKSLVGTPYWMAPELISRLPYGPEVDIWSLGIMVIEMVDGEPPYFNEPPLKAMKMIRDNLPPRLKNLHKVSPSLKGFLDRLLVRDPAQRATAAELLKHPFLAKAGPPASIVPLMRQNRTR
# Chain of Tyrosine-protein kinase JAK1 (Homo sapiens) (P23458 whole entry): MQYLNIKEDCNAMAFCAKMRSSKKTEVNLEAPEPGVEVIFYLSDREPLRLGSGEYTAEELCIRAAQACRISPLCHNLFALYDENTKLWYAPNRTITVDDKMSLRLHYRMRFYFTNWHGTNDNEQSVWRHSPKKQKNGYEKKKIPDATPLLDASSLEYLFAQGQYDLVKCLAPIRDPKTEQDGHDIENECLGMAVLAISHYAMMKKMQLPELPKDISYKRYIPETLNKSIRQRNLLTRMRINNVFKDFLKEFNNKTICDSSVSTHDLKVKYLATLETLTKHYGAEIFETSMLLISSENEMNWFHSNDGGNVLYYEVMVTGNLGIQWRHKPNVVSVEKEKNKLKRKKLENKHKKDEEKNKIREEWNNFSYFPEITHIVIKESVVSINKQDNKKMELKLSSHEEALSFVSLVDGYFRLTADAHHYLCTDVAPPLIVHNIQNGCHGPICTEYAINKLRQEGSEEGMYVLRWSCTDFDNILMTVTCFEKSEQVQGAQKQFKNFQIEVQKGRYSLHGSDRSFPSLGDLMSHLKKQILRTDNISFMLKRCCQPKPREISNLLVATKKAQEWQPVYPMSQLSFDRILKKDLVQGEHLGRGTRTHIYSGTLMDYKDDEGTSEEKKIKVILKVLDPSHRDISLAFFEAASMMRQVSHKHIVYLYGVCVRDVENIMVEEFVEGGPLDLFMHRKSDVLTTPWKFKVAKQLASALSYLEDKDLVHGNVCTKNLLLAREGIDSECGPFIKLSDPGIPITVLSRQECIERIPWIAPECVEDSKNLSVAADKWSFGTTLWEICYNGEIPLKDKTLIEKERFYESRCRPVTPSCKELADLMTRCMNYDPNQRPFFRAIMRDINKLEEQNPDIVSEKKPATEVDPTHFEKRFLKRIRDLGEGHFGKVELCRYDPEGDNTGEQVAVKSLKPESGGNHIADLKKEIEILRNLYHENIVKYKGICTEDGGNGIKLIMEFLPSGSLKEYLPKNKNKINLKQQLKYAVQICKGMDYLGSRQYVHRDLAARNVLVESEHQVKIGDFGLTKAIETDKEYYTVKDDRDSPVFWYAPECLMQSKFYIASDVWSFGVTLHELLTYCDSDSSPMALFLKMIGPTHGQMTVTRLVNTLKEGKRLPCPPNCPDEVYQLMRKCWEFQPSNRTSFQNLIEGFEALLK
smiles,measurement,setting,value
O=C(Nc1ccc(Oc2ccc(F)cc2)cc1)N1CCc2ncccc2[C@H]1c1ccc(F)cc1 [BAY-897],residual activity,[1],94%
same,residual activity,[2],94%
same,residual activity,[3],100%
same,inhibition,[4],15.9%
same,residual activity,[5],87%
same,residual activity,[6],85%
same,inhibition,[7],52.4%
same,inhibition,[8],54.5%
same,residual activity,[9],70%
same,residual activity,[10],100%
same,residual activity,[11],88%
same,residual activity,[12],100%
same,residual activity,[13],94%
same,residual activity,[14],93%
same,residual activity,[15],88%
same,residual activity,[16],77%
same,residual activity,[17],65%
same,residual activity,[18],100%
same,residual activity,[19],85%
same,residual activity,[20],98%
same,residual activity,[21],95%
same,residual activity,[22],86%
same,residual activity,[23],66%
same,residual activity,[24],92%
same,residual activity,[25],91%
same,residual activity,[26],89%
same,residual activity,[27],84%
same,residual activity,[28],88%
same,residual activity,[29],96%
same,residual activity,[30],97%
same,residual activity,[31],100%
same,residual activity,[32],91%
same,residual activity,[33],82%
same,residual activity,[34],93%
same,residual activity,[35],96%
same,residual activity,[36],89%
same,residual activity,[37],97%
same,residual activity,[38],95%
same,residual activity,[39],100%
same,residual activity,[40],93%
same,inhibition,[41],68.4%
same,residual activity,[42],100%
same,inhibition,[43],8.47%
same,residual activity,[44],93%
same,residual activity,[45],91%
O=C(Nc1cnc(Oc2ccc(F)cc2)nc1)N1CCc2ncccc2[C@@H]1c1ccc(F)cc1 [BAY-899],residual activity,[1],82%
same,residual activity,[2],86%
same,residual activity,[3],100%
same,inhibition,[4],5.89%
same,residual activity,[5],100%
same,residual activity,[6],100%
same,inhibition,[7],37.6%
same,inhibition,[8],8.72%
same,residual activity,[9],73%
same,residual activity,[10],100%
same,residual activity,[11],78%
same,residual activity,[12],100%
same,residual activity,[13],84%
same,residual activity,[14],89%
same,residual activity,[15],93%
same,residual activity,[16],84%
same,residual activity,[17],75%
same,residual activity,[18],100%
same,residual activity,[19],99%
same,residual activity,[20],93%
same,residual activity,[21],78%
same,residual activity,[22],100%
same,residual activity,[23],69%
same,residual activity,[24],100%
same,residual activity,[25],98%
same,residual activity,[26],100%
same,residual activity,[27],100%
same,residual activity,[28],76%
same,residual activity,[29],95%
same,residual activity,[30],100%
same,residual activity,[31],95%
same,residual activity,[32],100%
same,residual activity,[33],88%
same,residual activity,[34],98%
same,residual activity,[35],90%
same,residual activity,[36],100%
same,residual activity,[37],100%
same,residual activity,[38],82%
same,residual activity,[39],100%
same,residual activity,[40],83%
same,inhibition,[41],18.3%
same,residual activity,[42],94%
same,inhibition,[43],8.55%
same,residual activity,[44],79%
same,residual activity,[45],88%
